The text below walks through data of BindingDB's records for patent US9328099 (Merck Sharp & Dohme, 2016).

In experiment [1] the target is Tyrosine-protein kinase JAK1 (Homo sapiens, UniProt P23458). The experiment in a line: HTRF Biochemical Assay. The conditions noted are these: 25 °C. (TR-FRET usually uses a lanthanide donor and a delayed reading to cut background.)
The target in experiment [2] is Tyrosine-protein kinase JAK2 (Homo sapiens, UniProt O60674). The experiment can be described thus: HTRF Biochemical Assay. The conditions noted are these: 25 °C.

SMILES strings stand for the structures.

Chain of Tyrosine-protein kinase JAK2 (O60674 whole entry): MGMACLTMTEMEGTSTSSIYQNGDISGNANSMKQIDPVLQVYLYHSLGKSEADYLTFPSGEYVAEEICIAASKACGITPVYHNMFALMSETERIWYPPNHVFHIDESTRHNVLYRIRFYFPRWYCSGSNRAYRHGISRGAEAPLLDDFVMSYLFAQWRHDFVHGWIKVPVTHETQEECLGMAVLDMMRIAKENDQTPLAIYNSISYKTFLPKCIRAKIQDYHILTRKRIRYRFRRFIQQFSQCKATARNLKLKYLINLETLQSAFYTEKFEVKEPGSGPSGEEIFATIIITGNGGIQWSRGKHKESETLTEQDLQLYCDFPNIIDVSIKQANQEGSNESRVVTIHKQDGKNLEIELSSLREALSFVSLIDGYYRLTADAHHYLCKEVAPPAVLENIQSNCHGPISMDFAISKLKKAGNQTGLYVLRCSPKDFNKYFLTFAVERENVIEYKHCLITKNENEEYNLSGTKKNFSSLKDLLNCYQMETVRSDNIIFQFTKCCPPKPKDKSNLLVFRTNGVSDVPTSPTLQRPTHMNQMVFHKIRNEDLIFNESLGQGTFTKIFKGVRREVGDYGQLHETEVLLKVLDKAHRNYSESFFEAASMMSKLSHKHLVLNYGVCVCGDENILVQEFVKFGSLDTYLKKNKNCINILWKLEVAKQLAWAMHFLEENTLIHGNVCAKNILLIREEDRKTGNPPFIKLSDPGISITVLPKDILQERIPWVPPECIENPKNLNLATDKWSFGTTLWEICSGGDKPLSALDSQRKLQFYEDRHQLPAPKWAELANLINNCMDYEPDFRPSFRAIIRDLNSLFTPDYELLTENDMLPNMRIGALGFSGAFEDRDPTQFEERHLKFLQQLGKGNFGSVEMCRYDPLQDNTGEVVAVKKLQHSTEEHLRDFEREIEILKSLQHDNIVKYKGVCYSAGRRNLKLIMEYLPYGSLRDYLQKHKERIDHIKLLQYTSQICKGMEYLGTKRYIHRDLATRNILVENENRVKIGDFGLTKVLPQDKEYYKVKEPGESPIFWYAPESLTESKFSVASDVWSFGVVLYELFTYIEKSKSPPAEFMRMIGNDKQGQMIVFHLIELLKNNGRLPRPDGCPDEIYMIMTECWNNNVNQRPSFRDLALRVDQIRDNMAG
Chain of Tyrosine-protein kinase JAK1 (P23458 whole entry): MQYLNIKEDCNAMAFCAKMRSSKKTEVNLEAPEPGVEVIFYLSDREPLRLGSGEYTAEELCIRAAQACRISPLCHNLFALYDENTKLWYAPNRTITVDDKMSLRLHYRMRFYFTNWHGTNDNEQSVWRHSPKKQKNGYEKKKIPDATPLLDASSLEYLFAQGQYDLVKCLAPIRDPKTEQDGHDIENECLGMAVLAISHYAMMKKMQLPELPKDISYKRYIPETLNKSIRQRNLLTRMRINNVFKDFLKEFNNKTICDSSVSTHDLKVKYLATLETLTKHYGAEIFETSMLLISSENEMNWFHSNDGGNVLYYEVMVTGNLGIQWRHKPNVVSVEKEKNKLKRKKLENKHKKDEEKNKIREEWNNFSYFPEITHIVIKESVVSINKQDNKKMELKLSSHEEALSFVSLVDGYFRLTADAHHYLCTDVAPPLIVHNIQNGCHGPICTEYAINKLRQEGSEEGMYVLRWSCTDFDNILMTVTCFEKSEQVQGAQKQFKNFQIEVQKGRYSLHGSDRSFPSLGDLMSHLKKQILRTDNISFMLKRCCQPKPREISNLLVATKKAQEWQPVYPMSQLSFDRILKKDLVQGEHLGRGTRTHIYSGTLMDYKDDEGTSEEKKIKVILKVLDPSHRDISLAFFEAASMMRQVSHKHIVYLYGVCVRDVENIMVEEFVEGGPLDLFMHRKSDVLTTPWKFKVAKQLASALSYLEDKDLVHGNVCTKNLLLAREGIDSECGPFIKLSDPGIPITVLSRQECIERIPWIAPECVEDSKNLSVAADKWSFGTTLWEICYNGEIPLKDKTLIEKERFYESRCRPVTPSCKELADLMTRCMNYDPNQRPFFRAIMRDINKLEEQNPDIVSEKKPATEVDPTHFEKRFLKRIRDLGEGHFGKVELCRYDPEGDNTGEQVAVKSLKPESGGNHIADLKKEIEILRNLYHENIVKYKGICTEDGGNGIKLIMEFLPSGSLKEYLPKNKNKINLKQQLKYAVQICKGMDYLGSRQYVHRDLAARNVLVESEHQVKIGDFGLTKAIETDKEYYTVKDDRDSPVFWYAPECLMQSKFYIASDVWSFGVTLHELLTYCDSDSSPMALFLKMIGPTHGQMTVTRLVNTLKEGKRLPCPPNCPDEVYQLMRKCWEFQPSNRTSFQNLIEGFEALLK

For `Cc1cc(F)c(Nc2ccnc3c2C(=O)Nc2cc(CN4CC[C@@H](N)C4)ccc2N3)cc1O` [US9328099, 29-A], the IC50 (as a rule, the concentration that gives 50% inhibition) worked out at 1 nM in experiment [1] and 40 nM in experiment [2].
